Test results from US20100113550A1, “New Crystal Forms” (BIAL - PORTELA AND CA, S.A., priority 2006, published 2010).
“Also recorded” adds a separate entry of the source. Where two headings read alike, the source gives them in different places.

Legend:
Format in all cases: physicochemical
[1] = RH stability: storage at controlled relative humidity or drying, checked by XRPD and for deliquescence
[2] = as above; conditions: high relative humidities, long periods of time
Text: Form A samples were stored at lower relative humidities of approximately 9-11, 23 and 32% RH and analyzed by XRPD and Karl-Fischer titration analysis after four weeks (Tables 30 and 31). The samples appeared to be Form A by XRPD. […] Note that the water content in the samples at 23 and 32% RH was slightly higher compared to the initial batch of Form A.
Form X samples were stored at relative humidities of approximately 43, 75 and 90% RH and analyzed by XRPD and Karl-Fischer titration analysis after five weeks (Tables 34 and 35).

[3] = Interconversion studies of Forms A and C (slurries, XRPD); conditions: interconversion in ethanol and acetone:water 99:1
Experimental: A slurry of compound 1, Form A, was prepared in a given solvent and loaded on an orbit shaker at either ambient or elevated temperature for at least 1 day. The liquid phase of the slurry was drawn off with a pipette and filtered through a 0.2-μm filter. A slurry containing compound 1 forms A and C was prepared using the filtered liquid phase from the Form A slurry. The mixture was then loaded on an orbit shaker in a sealed vial at either ambient or elevated temperature for 1 or 7 days. The solids were isolated by vacuum filtration or by drawing the liquid phase off with a pipette and allowing the solids to air dry at ambient conditions prior to analysis. The resulting Forms were characterised by XRPD.

[4] = Approximate solubilities (solvent added until a solution forms); conditions: for solubility: read-out: Solubility (approximate)
Text: Approximate solubilities of compound 1, Form A in aqueous mixtures containing high concentrations of organic solvents are given in Table 1. [table]

With `Cl.NCCc1c[nH]c(=S)n1[C@H]1COc2c(F)cc(F)cc2C1` [Form C, (R)-5-(2-Aminoethyl)-1-(6,8-difluorochroman-3-yl)-1,3-dihydroimidazole-2-thione hydrochloride] the Hygroscopicity [1] was “non-hygroscopic”, the “RH stability, XRPD result” value ([1]; 95% relative humidity, ~2 months) was “did not change” and the Deliquescence ([1]; approximately 65% relative humidity, one week) was “did not deliquesce”. The Deliquescence ([1]; approximately 90% relative humidity, 11 days) was “did not deliquesce”, the “Stability under high relative humidities” value [2] was “remain stable” and the “Relative thermodynamic stability of the forms” value [3] was “more thermodynamically stable than Form A”. The solubility ([4]; 1,4-dioxane, organic solvent or mixture, 1,4-dioxane) was under 1000 µg/mL, the solubility ([4]; 1,4-dioxane:water 9:1, organic solvent or mixture, 1,4-dioxane:water 9:1) was over 22000 µg/mL and the “Solubility (approximate)” value ([4]; 1,4-dioxane:water 99:1, hydrochloride) was under 22000 µg/mL. For the same compound, the “Solubility (approximate)” value ([4]; 2,2,2-trifluoroethanol, hydrochloride) was 1700 µg/mL, the solubility ([4]; THF:water 9:1, organic solvent or mixture, THF:water 9:1) was over 23000 µg/mL and the solubility ([4]; THF:water 99:1, organic solvent or mixture, THF:water 99:1) was under 24000 µg/mL. For the same compound, the “Solubility (approximate)” value ([4]; acetone:water 90:10 (9:1)) was over 23000 µg/mL, the “Solubility (approximate)” value ([4]; acetone:water 99:1, hydrochloride) was under 24000 µg/mL and the “Solubility (approximate)” value ([4]; acetone, hydrochloride) was under 1000 µg/mL. For the same compound, the solubility ([4]; acetonitrile, organic solvent or mixture, acetonitrile) was under 1000 µg/mL, the solubility ([4]; acetonitrile:water 4:1, organic solvent or mixture, acetonitrile:water 4:1) was over 40000 µg/mL and the “Solubility (approximate)” value ([4]; acetonitrile:water 90:10 (9:1), hydrochloride) was under 25000 µg/mL. For the same compound, the “Solubility compared with the other forms (in words)” value ([4]; comparison between forms) was “lower compared to the solubilities of Form A”, the solubility ([4]; dichloromethane, organic solvent or mixture, dichloromethane) was under 1000 µg/mL and the solubility ([4]; diethyl ether, organic solvent or mixture, diethyl ether) was under 1000 µg/mL. For the same compound, the “Solubility (approximate)” value ([4]; ethanol:water 90:10 (9:1), hydrochloride) was under 22000 µg/mL, the “Solubility (approximate)” value ([4]; ethanol, hydrochloride) was 2000 µg/mL and the solubility ([4]; ethyl acetate, organic solvent or mixture, ethyl acetate) was under 1000 µg/mL. The solubility ([4]; hexafluoro isopropanol, organic solvent or mixture, hexafluoro isopropanol) was 1000 µg/mL, the solubility ([4]; hexane, organic solvent or mixture, hexane) was under 1000 µg/mL and the “Solubility (approximate)” value ([4]; iso-propanol, hydrochloride) was under 1000 µg/mL. For the same compound, the “Solubility (approximate)” value ([4]; methanol, hydrochloride) was 21000 µg/mL, the “Solubility (approximate)” value ([4]; methyl ethyl ketone, hydrochloride) was under 1000 µg/mL and the solubility ([4]; n-propanol, organic solvent or mixture, n-propanol) was under 1000 µg/mL. For the same compound, the “Solubility by kind of solvent (in words)” value ([4]; organic solvents and aqueous mixtures, hydrochloride) was “poorly soluble in most organic solvents, except in methanol; also recorded: slightly soluble in ethanol, hexafluoroisopropanol, 2,2,2-trifluoroethanol, and some aqueous mixtures”, the “Solubility (approximate)” value ([4]; tetrahydrofuran (THF), hydrochloride) was under 1000 µg/mL and the solubility ([4]; toluene, organic solvent or mixture, toluene) was under 1000 µg/mL. The solubility ([4]; water) was 23000 µg/mL.
